Results published in US20170280718A1, “HERBICIDAL AND FUNGICIDAL COMPOSITIONS AND THEIR USES” (The Regents of the University of California, priority 2014, published 2017).
pIC50: −log10 of the molar value. Entries after “also recorded” stand apart in the source; their conditions may differ. Where two headings read alike, the source gives them in different places.

Experiments:
[1] = system: GFP-CESA3 and CFP-SYP61 compartments; assay: Colocalization of GFP-CESA3 and CFP-SYP61 compartments, confocal microscopy; assay type: cell-based, Arabidopsis; details: versus DMSO; p=0.0013, t-test
Method: (§1) Confocal images for CFP-SYP61-×CESA3-GFP were obtained using a Leica SP5 microscope using a 63× water objective employing dual channel sequential line scanning. Fluorescent markers were excited at 442 nm (CFP) and 488 nm (GFP). Additional confocal images were obtained using a Zeiss 710 equipped with a 63× oil and a 40× water objective. A 561 nm diode laser was used for propidium iodide (PI, Sigma) and RFP, a 488 nm for GFP, a 514 nm for YFP, and a 405 nm for CFP. Image analysis was performed using a combination of software tools: ImageJ software (version 1.36b; http://rsbweb.nih.gov/ij/), Image Pro Plus (Media Cybernetics, Rockville, Md.), and Imaris (Bitplane, Saint Paul, Minn.).
CSCs are enriched in SYP61 associated compartments upon CESTRIN treatment. The apparent redistribution of CSCs in the cell cortex prompted us to further investigate the identity of CESTRIN bodies. Previous studies have shown that CSCs are partially colocalized with SYP61/VHA-a1 in early endosome/TGN compartments (Crowell et al., 2009; Gutierrez et al., 2009). The presence of CESAs in SYP61 vesicles has been established by proteomic analysis (Drakakaki et al., 2012). […] As previously shown, both SYP61 and SYP41/42 partially overlap with CESA6 under mock treatment, however only SYP61 remains partially colocalized after mannitol treatment (Gutierrez et al., 2009). […]

[2] = system: ER, Golgi, TGN, early endosomes, vacuole, CLC2-GFP, Theseus-GFP, sec-GFP markers; assay: Specificity: organelle markers and their subcellular localizations in etiolated hypocotyls; assay type: cell-based, Arabidopsis
From the text: (§2) Transgenic lines expressing MAN-YFP (Nebenfuhr et al., 1999), HDEL-GFP (Nelson et al., 2007), VAMP711-YFP (Geldner et al., 2009), NTPP-RFP (Rosado et al.), THE1-GFP (Hematy et al., 2007), CLC-GFP (Konopka et al., 2008), VHA-RFP (Dettmer et al., 2006), VTI12-YFP (Geldner et al., 2009), CFP-SYP61 (Robert et al., 2008), sec-GFP (Goh et al., 2007), CESA6-YFP (Paredez et al., 2006), TUB-GFP (Nakamura et al., 2004), EB1-GFP (Bisgrove et al., 2008) and TALIN-GFP ((Mathur et al., 1999) were used. In addition, the mutant ixr1-1 (Scheible et al., 2001) and prc1-1 (Desnos et al., 1996) were used.
as §1, with “Minn.). […]” for “Minn.).”

[3] = system: E. coli; assay: Bacterial growth in LB media containing the chemical; assay type: cell-based; details: OD over 8 hours
Method: Two mL of Luria-Bertani (LB) media (10 g tryptone, 5 g yeast extract, and 10 g NaCl, pH 7) were inoculated with a single colony of TOP 10 cells and incubated overnight at 37° C. Thirty μL of this culture was then used to inoculate 3 mL of LB media containing the chemical. The OD was measured every 30 minutes over 8 hours using a spectrometer.

[4] = system: Schizosaccharomyces pombe; assay: Yeast growth on solid YPD containing the chemical; assay type: cell-based; details: 5 days
Method: Single colonies of Saccharomyces cerevisiae-Y2H Gold and Schizosaccharomyces pombe were grown in liquid yeast extract-peptone-dextrose (YPD) media (10 g yeast extract, 20 g peptone, and 20 g glucose per 1 L of media, pH 7), at 30° C. for 24 hours. Yeast cultures were transferred to 3 mL of YPD to grow until an OD of 0.7 was reached. Ten μL of liquid YPD containing yeast at an OD 0.7 were placed onto solid YPD (10 g yeast extract, 20 g peptone 20 g glucose and 11 g bacto-agar per 1 L of media, pH 7) in a 6 well plate containing the chemicals. Four serial dilutions (1:10) were spotted per well. Plates were incubated at 30° C. for 3 days for Saccharomyces cerevisiae-Y2H Gold and 5 days for Schizosaccharomyces pombe and imaged with a flatbed scanner.

[5] = system: Arabidopsis etiolated hypocotyls; assay: Hypocotyl growth measurements of etiolated seedlings; assay type: in vivo; details: for pIC50: Arabidopsis thaliana; for hypocotyl growth response of prc1-1 mutant: CESA6 mutant prc1-1, 8 μM CESTRIN or 4 nM isoxaben, lower degree than WT Col-0
Method: For growth analysis, seedlings were germinated on AGM containing the chemicals CESTRIN or isoxaben solubilized in DMSO and grown as described above. When the experiment was complete, the plates were scanned using a flatbed scanner (Epson Perfection V300) and hypocotyl lengths were measured using the segmented line tool in the image analysis software, ImageJ (Rasband et al., 1997-2014). Statistical analyses were carried out using the statistical package, R (R Core Team, 2012).

[6] = system: cellulose content in Arabidopsis etiolated seedlings; assay: Cellulose content of etiolated hypocotyls (modified Updegraff method, Anthrone assay); assay type: in vivo, Arabidopsis thaliana
Method: Etiolated WT Col-0 Arabidopsis thaliana seedlings were grown on AGM containing CESTRIN as described above. Hypocotyls were harvested after 8 days of growth. Cell wall materials were isolated into alcohol insoluble residues (AIR) (Gunl et al., 2010) and cellulose content was estimated using a modified Updegraff method (Updegraff, 1969). Briefly, insoluble trifluoroacetic acid hydrolyzed AIR pellets were quantified using the Anthrone assay as described earlier Viles & Silverman (1949) and Dische (1962).

[7] = system: tubulin; assay: MT polymerization assay (in vitro, OD of polymerized tubulin); assay type: biochemical; details: 15 μM
From the text: The MT polymerization data was obtained using a polymerization assay kit (Cytoskeleton, Inc. Denver Colo.), employing OD measurements of polymerized tubulin as previously described (Shelanski et al., 1973; Lee and Timasheff, 1977).

[8] = system: microtubules (TUB-GFP, RFP-TUA5), EB1-GFP, Talin-GFP, CESA6-YFP; assay: Cytoskeleton and CESA marker localization in etiolated hypocotyls (microtubules, EB1, actin, CESA6); assay type: cell-based, Arabidopsis
From the text: as §2, §1

[9] = system: Phytophtora capsici; assay: Phytophthora growth in corn agar media; assay type: cell-based; details: 3 weeks in supplemented media
Method: Phytophtora capsici inoculates were grown in corn agar media supplemented either with DMSO or different concentrations of CESTRIN. After 3 weeks cultures were imaged using flatbed scanner.

[10] = system: GFP-CESA3 (cellulose synthase complexes, CSCs); details: 2-hour CESTRIN treatment (15 μM); control 218 nm/min
[11] = system: GFP-KOR1; details: CESTRIN treatment; control average 220 nm/min
[12] = system: 3×Ypet-POM2/CSI1

Structure (SMILES): Cc1cc(C(F)(F)F)cc(NNc2c([N+](=O)[O-])cc(C(F)(F)F)cc2[N+](=O)[O-])n1 [CESTRIN, 1-[2,6-dinitro-4-(trifluoromethyl)phenyl]-2-[6-methyl-4-(trifluoromethyl)pyridin-2-yl]hydrazine]
- enhancement of colocalization of GFP-CESA3 and CFP-SYP61 compartments [1]: ~15%
- localization of PM-receptor-like kinase Theseus-GFP and secretion marker sec-GFP [2]: neither the localization of the PM-receptor-like kinase Theseus-GFP nor the secretion marker sec-GFP were altered
- morphology of endosomes labeled by CLC2-GFP [2]: unaltered morphology
- effect on proliferation of bacteria [3]: no effect on their proliferation was observed
- growth of yeast [4]: inhibited
- pIC50 ([5]; read-out: estimated IC50, anisotropic cell growth): 5.31
- pIC50 ([5]; read-out: half maximal inhibitory concentration (IC50), growth inhibition of hypocotyls): 5.31
- hypocotyl growth response of prc1-1 mutant [5]: showed sensitivity
- reduction of hypocotyl growth of WT Col-0 ([5]; WT Col-0, 8 μM CESTRIN vs DMSO, P=0.001): 80%
- reduction of hypocotyl growth of ixr1-1 ([5]; isoxaben-resistant CESA3 mutant ixr1-1, 8 μM CESTRIN vs DMSO, n=16): 62%
- Cellulose content, Hypocotyl ([6]; 9 μM, etiolated seedlings, 8 days, DMSO 103.7 ± 6.4): 75.3 ± 2.7 μg/mg AIR
- reduction in cellulose compared to control seedlings ([6]; hypocotyls grown on 9 μM CESTRIN): ~30%
- in-vitro polymerization of tubulin [7]: not affected; also recorded: does not inhibit in vitro tubulin polymerization
- morphology or organization of actin (Talin-GFP) ([8]; 15 μM): does not affect
- localization of the end binding protein 1 (EB1-GFP) ([8]; 15 μM (printed 15 JIM)): induced cytoplasmic localization
- MT organization and GFP-CESA3 particle distribution (RFP-TUA5 / GFP-CESA3 seedlings) ([8]; two-hour treatment): causes loss of MT organization and redistribution of GFP-CESA3 particles
- Phytophthora capsici growth [9]: completely inhibited
- average velocity of the GFP-CESA3 particles [10]: 127 nm/min
- mean velocity of GFP-KOR1 labelled particles [11]: ~60 nm/min
- localization of 3×Ypet-POM2 ([12]; 2 hours of CESTRIN treatment): localized to the cytoplasm
- motility of POM2 labelled particles ([12]; after 2 hours of treatment): came virtually to a rest
- average motility of POM2 labelled particles ([12]; after about 1.5 hours of treatment, n=106, control ~262 nm/min): 0.273 ×10⁻⁶ cm/s

Structure (SMILES): CCC(C)(CC)c1cc(NC(=O)c2c(OC)cccc2OC)on1 [isoxaben, N-[3-(1-Ethyl-1-methylpropyl)-5-isoxazolyl]-2,6-dimethyoxybenzamide, reference compound]
- hypocotyl growth response of prc1-1 mutant [5]: showed sensitivity
- hypocotyl growth of ixr1-1 ([5]; ixr1-1, 4 nM isoxaben vs DMSO, p=0.2): not reduced
